The test concerns T1, KERUS.
T1 construct: native extracellular enzyme purified from culture supernatant; mature form 275 aa of a 383-aa pre-pro-enzyme (pre 29 aa, pro 79 aa removed)
The test is described as follows: esterase activity, absorbance at […] nm, Lineweaver-Burk. Type of test: biochemical, Brevibacillus brevis. The following applies: pH 8, 40°C, 10% (v/v) DMSO, 1% (v/v) Triton X-100.

One may read the Km as the substrate concentration at which the rate is half of its maximum. Consider `CCOC(=O)[C@H](CCCN=C(N)N)NC(=O)c1ccccc1` [BAEE], for which the Km came out at 655 ± 33 µM.

Source of the values: paper PMC3795758, “Biochemical and Molecular Characterization of a Serine Keratinase from Brevibacillus brevis US575 with Promising Keratin-Biodegradation and Hide-Dehairing Activities” (PLoS ONE, 2013).
